The text below walks through data of ChEMBL document CHEMBL1154415, “Population pharmacokinetics and pharmacodynamics of continuous versus short-term infusion of imipenem-cilastatin in critically ill patients in a randomized, controlled trial” (Antimicrob Agents Chemother, 2007).

Data set [1] is described as follows: Plasma concentration in nosocomial pneumonia patient at loading dose of 1 g and maintenance dose of 2 g administered daily for 3 days as continuous infusion measured after 72 hrs in presence of cilastatin. The class given is ADME, organism-based. Particulars: human, iv.
The subject of another data set is Serum. Description: Protein binding in human serum by ultrafiltration technique in presence of cilastatin. The class given is ADME, cell-free.
Data set [2] in a line: Total clearance in nosocomial pneumonia patient at 1 g administered every 8 hrs for 3 days as shot-term iv infusion for 40 mins or at a loading dose of 1 g and maintenance dose of 2 g administered daily for 3 days as continuous iv infusion presence of cilastatin maintenance dose administered as continuous fusion at 8 hrs interval over 72 hrs in presence of cilastatin. In kind it is ADME, organism-based. Particulars: human, in vivo.

For another data set, the species on record is Homo sapiens. Description: Toxicity in nosocomial pneumonia patient assessed as induction of seizures in presence of cilastin. The settings on record: in vivo. The class given is organism-based.

Regarding `C[C@@H](O)[C@H]1C(=O)N2C(C(=O)O)=C(SCCN=CN)C[C@H]12` [IMIPENEM ANHYDROUS], the concentration at 72 h in data set [1] stood at 8650 ng/mL. For the same molecule, the Activity was 20% with Serum and “Non-toxic” in the data set filed under Homo sapiens. Besides, in data set [2], the clearance was 205 mL/min.

As usually defined, the clearance is a measure of how efficiently the substance is removed, as volume per time.
